Consider three compounds from patent US20090253634A1, “Methods and Compositions for the Treatment of Gastrointestinal Disorders” (MICROBIA, INC., priority 2005, published 2009).

Ends that are not written are not given here.

One assay relates to gastrointestinal transit. The experiment in a line: murine gastrointestinal transit (GIT) assay, acute and chronic dosing. The assay is classed as in vivo, mice. To be noted: for gastrointestinal transit rate: oral, SEQ ID NO:4 and Zelnorm 0.1 mg/kg, FIG. 3a, 3b; for intestinal transit rate, dose dependence: recombinantly synthesized peptides, FIG. 4a. The protocol:
In order to determine whether the peptides increase the rate of gastrointestinal transit, the peptides and controls were tested using a murine gastrointestinal transit (GIT) assay (Moon et al. Infection and Immunity 25:127, 1979). In this assay, charcoal, which can be readily visualized in the gastrointestinal tract is administered to mice after the administration of a test compound. The distance traveled by the charcoal is measured and expressed as a percentage of the total length of the […].
Mice were fasted with free access to water for 12 to 16 hours before the treatment with peptide or control buffer. The peptides were orally administered at 1 μg/kg-1 mg/kg of peptide in buffer ([…] pH 7.5) 7 minutes before being given an oral dose of 5% Activated Carbon (Aldrich 242276-250G). Control mice were administered buffer only before being given a dose of Activated Carbon. After 15 minutes, the mice were sacrificed and their intestines from the stomach to the cecum were dissected. The total length of the intestine as well as the distance traveled from the stomach to the charcoal front was measured for each animal and the results are expressed as the percent of the total length of the intestine traveled by the charcoal front. All results are reported as the average of 10 mice±standard deviation. A comparison of the distance traveled by the charcoal between the mice treated with peptide versus the mice treated with vehicle alone was performed using a Student's t test and a statistically significant difference was considered for P<0.05. P-values are calculated using a two-sided T-Test assuming unequal variances.
The identical experiment was performed to determine if SEQ ID NO:3 is effective in a chronic dosing treatment regimen. Briefly, 8 week old CD1 female mice are dosed orally once a day for 5 days with either SEQ ID NO:3 (0.06 mg/kg or 0.25 mg/kg in 20 mM Tris pH 7.5) or vehicle alone (20 mM Tris pH 7.5). On the 5th day, a GIT assay is performed identical to that above except 200 μl of a 10% charcoal solution is administered. […] The results are shown side by side with acute dosing (1 day).

The next assay concerns intestinal secretion. The experiment in a line: suckling mouse model of intestinal secretion (SuMi assay). Type of assay: in vivo, suckling mice. As for the experimental part: In this model a test compound is administered to suckling mice that are between 7 and 9 days old. After the mice are sacrificed, the gastrointestinal tract from the stomach to the cecum is dissected (“guts”). The remains (“carcass”) as well as the guts are weighed and the ratio of guts to carcass weight is calculated. If the ratio is above 0.09, one can conclude that the test compound increases intestinal secretion. […] The effect of Zelnorm® was also studied.

The next assay addresses T1, intestinal GC-C receptor (Homo sapiens, UniProt P25092).
T1 construct: monolayers of T84 cells in 24-well plates; host or cells: T84 human colon carcinoma cells
In words: GC-C receptor activity assay (cyclic GMP) in T84 cells. The conditions noted are these: chemically synthesized peptides, cyclic GMP by EIA. Type of assay: cell-based. The protocol: The ability of SEQ ID NO:5, SEQ ID NO:4, SEQ ID NO:3, and SEQ ID NO:6 to activate the intestinal GC-C receptor was assessed in an assay employing the T84 human colon carcinoma cell line (American Type Culture Collection (Bethesda, Md.)). For the assays cells were grown to confluency in 24-well culture plates with a 1:1 mixture of Ham's F12 medium and Dulbecco's modified Eagle's medium (DMEM), supplemented with 5% fetal calf serum and were used at between passages 54 and 60.
Briefly, monolayers of T84 cells in 24-well plates were washed twice with 1 ml/well DMEM, then incubated at 37° C. for 10 min with 0.45 ml DMEM containing 1 mM isobutylmethylxanthine (IBMX), a cyclic nucleotide phosphodiesterase inhibitor, Test peptides (50 μl) were then added and incubated for 30 minutes at 37° C. The media was aspirated and the reaction was then terminated by the addition of ice cold 0.5 ml of 0.1N HCl. The samples were held on ice for 20 minutes and then evaporated to dryness using a heat gun or vacuum centrifugation.

For assay [1], the target named is T2, GC-C receptors found in rat intestinal mucosa (Rattus norvegicus, UniProt P23897).
T2 construct: Epithelial cells from the small intestine of rats were obtained; from tissue; host or cells: rat small-intestinal mucosa / epithelial cell suspension
T2 sequence (P23897 23-1072): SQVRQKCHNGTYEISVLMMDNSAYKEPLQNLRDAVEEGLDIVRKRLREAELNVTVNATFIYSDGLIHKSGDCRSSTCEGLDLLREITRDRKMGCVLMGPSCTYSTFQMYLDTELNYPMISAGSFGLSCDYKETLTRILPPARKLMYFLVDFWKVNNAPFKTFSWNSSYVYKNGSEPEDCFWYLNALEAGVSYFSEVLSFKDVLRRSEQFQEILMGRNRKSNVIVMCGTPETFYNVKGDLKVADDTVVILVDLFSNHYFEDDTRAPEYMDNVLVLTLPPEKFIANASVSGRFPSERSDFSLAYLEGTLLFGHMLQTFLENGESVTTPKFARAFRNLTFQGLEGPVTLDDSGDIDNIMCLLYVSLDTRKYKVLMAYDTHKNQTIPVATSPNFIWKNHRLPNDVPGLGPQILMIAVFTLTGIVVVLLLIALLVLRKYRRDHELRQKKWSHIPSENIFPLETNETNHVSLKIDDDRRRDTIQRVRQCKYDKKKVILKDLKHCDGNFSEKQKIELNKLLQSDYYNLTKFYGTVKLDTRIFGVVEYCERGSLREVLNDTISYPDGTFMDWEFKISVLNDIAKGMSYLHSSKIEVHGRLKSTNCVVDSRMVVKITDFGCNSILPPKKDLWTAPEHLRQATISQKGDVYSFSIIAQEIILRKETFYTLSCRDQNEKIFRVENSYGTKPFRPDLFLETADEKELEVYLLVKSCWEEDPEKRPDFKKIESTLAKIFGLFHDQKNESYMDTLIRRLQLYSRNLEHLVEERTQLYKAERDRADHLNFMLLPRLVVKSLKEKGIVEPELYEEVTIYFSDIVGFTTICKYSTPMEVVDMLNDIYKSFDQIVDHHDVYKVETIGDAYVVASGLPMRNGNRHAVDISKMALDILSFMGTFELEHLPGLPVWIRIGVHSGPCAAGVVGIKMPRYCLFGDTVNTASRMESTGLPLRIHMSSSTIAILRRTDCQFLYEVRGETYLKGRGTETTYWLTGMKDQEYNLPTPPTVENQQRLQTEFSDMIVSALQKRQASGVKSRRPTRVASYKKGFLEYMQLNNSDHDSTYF
The conditions noted are these: same assay, observed by Giannella et al.; cited from earlier work.

For another assay, the system named is PBQ-induced writhing. In words: phenylbenzoquinone (PBQ)-induced writhing model.
[2] abbreviates: recombinant peptides, dose response, FIG. 6a.

T1 sequence (P25092 24-1073): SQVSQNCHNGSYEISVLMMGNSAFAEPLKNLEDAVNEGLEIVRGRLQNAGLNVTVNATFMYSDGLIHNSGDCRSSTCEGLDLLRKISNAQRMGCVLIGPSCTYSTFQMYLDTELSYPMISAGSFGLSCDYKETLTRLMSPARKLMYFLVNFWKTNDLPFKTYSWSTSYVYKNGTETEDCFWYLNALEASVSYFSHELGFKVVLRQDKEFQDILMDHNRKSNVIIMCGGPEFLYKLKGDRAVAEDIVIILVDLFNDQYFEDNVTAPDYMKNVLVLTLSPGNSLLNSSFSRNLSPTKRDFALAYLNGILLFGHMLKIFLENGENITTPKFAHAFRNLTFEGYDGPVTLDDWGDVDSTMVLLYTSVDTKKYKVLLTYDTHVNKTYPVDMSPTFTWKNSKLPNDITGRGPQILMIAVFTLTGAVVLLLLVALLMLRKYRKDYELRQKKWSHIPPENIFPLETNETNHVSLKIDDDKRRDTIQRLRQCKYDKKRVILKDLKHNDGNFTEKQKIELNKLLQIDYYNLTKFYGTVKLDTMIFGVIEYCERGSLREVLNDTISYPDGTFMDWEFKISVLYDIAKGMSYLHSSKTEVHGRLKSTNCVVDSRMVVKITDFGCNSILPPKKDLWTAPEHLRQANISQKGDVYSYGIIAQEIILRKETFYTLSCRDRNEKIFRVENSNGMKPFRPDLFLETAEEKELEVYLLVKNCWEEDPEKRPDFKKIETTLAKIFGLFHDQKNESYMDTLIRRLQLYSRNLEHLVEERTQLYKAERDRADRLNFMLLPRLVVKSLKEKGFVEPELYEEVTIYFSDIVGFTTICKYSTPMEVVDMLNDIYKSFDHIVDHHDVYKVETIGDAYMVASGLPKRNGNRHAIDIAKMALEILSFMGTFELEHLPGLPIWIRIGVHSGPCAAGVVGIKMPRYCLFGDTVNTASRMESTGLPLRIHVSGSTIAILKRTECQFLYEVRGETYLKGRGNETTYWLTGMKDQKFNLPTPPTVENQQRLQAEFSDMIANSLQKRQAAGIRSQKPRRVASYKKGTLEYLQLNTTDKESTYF

On to `[H]/N=C(/NCCCCC)N/N=C/c1c[nH]c2ccc(OC)cc12` [Zelnorm®, tegaserod], for which the gastrointestinal transit rate entry in the assay on gastrointestinal transit (acute) is reported as “increase gastrointestinal transit rate”. In addition, the “effect in mouse gastrointestinal motility assay upon chronic dosing” value in the assay with gastrointestinal transit (oral once a day for 5 days, SEQ ID NO:3 0.06 or 0.25 mg/kg, FIG. 4c) is listed as “effective”. Also, in the assay with intestinal secretion (0.2 mg/kg), the “intestinal secretion (guts to carcass weight ratio)” value is on record as “does not increase intestinal secretion”.

The term Kd denotes the concentration at which binding is half-saturated. NSSNYCCELCCNPACTGCY [SEQ ID NO:4]: the “activity in GC-C receptor activity assay” value at intestinal GC-C receptor was “activity comparable to SEQ ID NO:4”. The “intestinal transit rates versus Tris buffer or equivalent dose of Zelnorm” value with gastrointestinal transit (acute, chemically synthesized peptides, FIG. 4b) was “increase intestinal transit rates more than either Tris buffer alone or an equivalent dose of Zelnorm®”. In addition, the gastrointestinal transit rate entry with gastrointestinal transit (acute) is “increase gastrointestinal transit rate”. Also, in the assay with gastrointestinal transit (acute), the “intestinal transit rate, dose dependence” value was “increases with an increasing dosage”. In addition, the “intestinal secretion (guts to carcass weight ratio)” value with intestinal secretion (dose response, wild-type ST purchased from TDT, FIG. 5a, 5b) is on record as “increase intestinal secretion”; in the assay on intestinal secretion (setting [2]), “increase intestinal secretion”. Also, the Kd in assay [1] is around 13 nM.

With “NSSNYCCEYCCNPACTGCY (cysteine pairing not given here) [SEQ ID NO:5]”, the “intestinal transit rate, dose dependence” value in the assay on gastrointestinal transit (acute) was “increases with an increasing dosage”. Further, the “intestinal secretion (guts to carcass weight ratio)” value with intestinal secretion (setting [2]) is reported as “increase intestinal secretion”. In addition, in the assay on PBQ-induced writhing (1 mg/kg dose, oral), the “writhings versus vehicle control” value was “Significant reductions in writhings”. The “antinociceptive effect compared with indomethacin” value in the assay with PBQ-induced writhing (PBQ writhing assay) is listed as “antinociceptive effects in this visceral pain model comparable to the intermediate doses of indomethacin”.
